From the NIST ThermoML archive (doi:10.1021/je900596d)
± gives the expanded uncertainty stated by the source.

Details: 362.9 K, Vibrating tube method

FC(F)=C(F)C(F)(F)F [hexafluoropropene]
Details | mass density [kg/m3]
986.7 kPa, Fluid (supercritical or subcritical phases) | 55.35 ± 0.08
1010.4 kPa, Fluid (supercritical or subcritical phases) | 56.58 ± 0.09
1044 kPa, Fluid (supercritical or subcritical phases) | 59.01 ± 0.09
1060.4 kPa, Fluid (supercritical or subcritical phases) | 59.9 ± 0.09
1076.4 kPa, Fluid (supercritical or subcritical phases) | 61.11 ± 0.09
1097.9 kPa, Fluid (supercritical or subcritical phases) | 62.31 ± 0.09
1119.7 kPa, Fluid (supercritical or subcritical phases) | 63.86 ± 0.1
1141.5 kPa, Fluid (supercritical or subcritical phases) | 65.33 ± 0.1
1162.5 kPa, Fluid (supercritical or subcritical phases) | 66.89 ± 0.1
1202.5 kPa, Fluid (supercritical or subcritical phases) | 69.4 ± 0.1
1221.4 kPa, Fluid (supercritical or subcritical phases) | 70.92 ± 0.1
1239.6 kPa, Fluid (supercritical or subcritical phases) | 71.99 ± 0.11
1257.3 kPa, Fluid (supercritical or subcritical phases) | 73.4 ± 0.11
1274.3 kPa, Fluid (supercritical or subcritical phases) | 74.42 ± 0.11
1293.3 kPa, Fluid (supercritical or subcritical phases) | 76 ± 0.11
1312.3 kPa, Fluid (supercritical or subcritical phases) | 77.04 ± 0.11
1331.5 kPa, Fluid (supercritical or subcritical phases) | 78.67 ± 0.12
1349 kPa, Fluid (supercritical or subcritical phases) | 79.84 ± 0.12
1367.1 kPa, Fluid (supercritical or subcritical phases) | 81.15 ± 0.12
1388 kPa, Fluid (supercritical or subcritical phases) | 82.53 ± 0.12
1408.2 kPa, Fluid (supercritical or subcritical phases) | 83.98 ± 0.12
1429.7 kPa, Fluid (supercritical or subcritical phases) | 85.75 ± 0.13
1447.9 kPa, Fluid (supercritical or subcritical phases) | 86.99 ± 0.13
1484.9 kPa, Fluid (supercritical or subcritical phases) | 89.9 ± 0.13
1503.2 kPa, Fluid (supercritical or subcritical phases) | 91.22 ± 0.13
1521.3 kPa, Fluid (supercritical or subcritical phases) | 92.61 ± 0.14
1544.9 kPa, Fluid (supercritical or subcritical phases) | 94.44 ± 0.14
1567.8 kPa, Fluid (supercritical or subcritical phases) | 96.26 ± 0.14
1613.4 kPa, Fluid (supercritical or subcritical phases) | 99.81 ± 0.15
1634.9 kPa, Fluid (supercritical or subcritical phases) | 101.65 ± 0.15
1655.8 kPa, Fluid (supercritical or subcritical phases) | 103.37 ± 0.15
1676.7 kPa, Fluid (supercritical or subcritical phases) | 104.81 ± 0.15
1696.6 kPa, Fluid (supercritical or subcritical phases) | 106.47 ± 0.16
1716 kPa, Fluid (supercritical or subcritical phases) | 108.07 ± 0.16
1734.8 kPa, Fluid (supercritical or subcritical phases) | 109.59 ± 0.17
1753 kPa, Fluid (supercritical or subcritical phases) | 111.4 ± 0.17
1771.1 kPa, Fluid (supercritical or subcritical phases) | 112.78 ± 0.16
1788.6 kPa, Fluid (supercritical or subcritical phases) | 114.27 ± 0.17
1805.4 kPa, Fluid (supercritical or subcritical phases) | 115.72 ± 0.17
1838.2 kPa, Fluid (supercritical or subcritical phases) | 118.54 ± 0.18
1868.9 kPa, Fluid (supercritical or subcritical phases) | 121.28 ± 0.18
1898.3 kPa, Fluid (supercritical or subcritical phases) | 124.13 ± 0.19
1923.7 kPa, Fluid (supercritical or subcritical phases) | 126.25 ± 0.19
1953.6 kPa, Fluid (supercritical or subcritical phases) | 129.06 ± 0.2
1971.3 kPa, Fluid (supercritical or subcritical phases) | 130.89 ± 0.2
1988.2 kPa, Fluid (supercritical or subcritical phases) | 132.28 ± 0.2
2005 kPa, Fluid (supercritical or subcritical phases) | 133.86 ± 0.21
2021.3 kPa, Fluid (supercritical or subcritical phases) | 135.65 ± 0.21
2037.3 kPa, Fluid (supercritical or subcritical phases) | 137.17 ± 0.21
2066.9 kPa, Fluid (supercritical or subcritical phases) | 140.08 ± 0.21
2099 kPa, Fluid (supercritical or subcritical phases) | 143.21 ± 0.22
2115.6 kPa, Fluid (supercritical or subcritical phases) | 144.99 ± 0.22
2133.5 kPa, Fluid (supercritical or subcritical phases) | 146.69 ± 0.23
2152 kPa, Fluid (supercritical or subcritical phases) | 148.88 ± 0.24
2207.8 kPa, Fluid (supercritical or subcritical phases) | 154.82 ± 0.24
2239 kPa, Fluid (supercritical or subcritical phases) | 158.23 ± 0.25
2255.7 kPa, Fluid (supercritical or subcritical phases) | 160.15 ± 0.25
2279.2 kPa, Fluid (supercritical or subcritical phases) | 162.54 ± 0.26
2296 kPa, Fluid (supercritical or subcritical phases) | 164.49 ± 0.26
2320.6 kPa, Fluid (supercritical or subcritical phases) | 167.17 ± 0.27
2341.1 kPa, Fluid (supercritical or subcritical phases) | 169.73 ± 0.28
2363.6 kPa, Fluid (supercritical or subcritical phases) | 172.35 ± 0.29
2382.4 kPa, Fluid (supercritical or subcritical phases) | 174.89 ± 0.3
2399.2 kPa, Fluid (supercritical or subcritical phases) | 176.97 ± 0.29
2416.1 kPa, Fluid (supercritical or subcritical phases) | 178.92 ± 0.3
2454.2 kPa, Fluid (supercritical or subcritical phases) | 183.72 ± 0.31
2471.2 kPa, Fluid (supercritical or subcritical phases) | 185.86 ± 0.32
2493.7 kPa, Fluid (supercritical or subcritical phases) | 188.92 ± 0.33
2510.8 kPa, Fluid (supercritical or subcritical phases) | 191.35 ± 0.33
2532.7 kPa, Fluid (supercritical or subcritical phases) | 194.2 ± 0.34
2568.3 kPa, Fluid (supercritical or subcritical phases) | 199.28 ± 0.36
2584.5 kPa, Fluid (supercritical or subcritical phases) | 201.68 ± 0.36
2637.6 kPa, Fluid (supercritical or subcritical phases) | 209.57 ± 0.38
2655.8 kPa, Fluid (supercritical or subcritical phases) | 212.2 ± 0.39
2673.6 kPa, Fluid (supercritical or subcritical phases) | 215.1 ± 0.41
2690.3 kPa, Fluid (supercritical or subcritical phases) | 217.71 ± 0.42
2706.4 kPa, Fluid (supercritical or subcritical phases) | 220.44 ± 0.42
2736.2 kPa, Fluid (supercritical or subcritical phases) | 225.31 ± 0.44
2764.5 kPa, Fluid (supercritical or subcritical phases) | 230.31 ± 0.46
2781.5 kPa, Fluid (supercritical or subcritical phases) | 233.26 ± 0.48
2809.5 kPa, Fluid (supercritical or subcritical phases) | 238.5 ± 0.5
2870.6 kPa, Fluid (supercritical or subcritical phases) | 250.29 ± 0.55
2897.9 kPa, Fluid (supercritical or subcritical phases) | 256.08 ± 0.6
2916.5 kPa, Fluid (supercritical or subcritical phases) | 260.21 ± 0.61
2944.7 kPa, Fluid (supercritical or subcritical phases) | 266.58 ± 0.65
2978.3 kPa, Fluid (supercritical or subcritical phases) | 274.33 ± 0.69
2997 kPa, Fluid (supercritical or subcritical phases) | 278.8 ± 0.74
3015.2 kPa, Fluid (supercritical or subcritical phases) | 283.34 ± 0.78
3032.8 kPa, Fluid (supercritical or subcritical phases) | 287.81 ± 0.83
3049.7 kPa, Fluid (supercritical or subcritical phases) | 292.35 ± 0.9
3066.4 kPa, Fluid (supercritical or subcritical phases) | 297.12 ± 1
3119.6 kPa, Fluid (supercritical or subcritical phases) | 313.41 ± 1.1
3140.3 kPa, Fluid (supercritical or subcritical phases) | 320.42 ± 1.1
3159.2 kPa, Fluid (supercritical or subcritical phases) | 327.22 ± 1.2
3176.3 kPa, Fluid (supercritical or subcritical phases) | 333.78 ± 1.2
3193.5 kPa, Fluid (supercritical or subcritical phases) | 340.76 ± 1.3
3209.9 kPa, Fluid (supercritical or subcritical phases) | 347.93 ± 1.4
3229.3 kPa, Fluid (supercritical or subcritical phases) | 357.01 ± 1.5
3246.9 kPa, Fluid (supercritical or subcritical phases) | 366.07 ± 1.6
3263.4 kPa, Fluid (supercritical or subcritical phases) | 375.24 ± 1.8
3285.9 kPa, Fluid (supercritical or subcritical phases) | 389.23 ± 2
3305.8 kPa, Fluid (supercritical or subcritical phases) | 403.5 ± 2.5
3341.5 kPa, Fluid (supercritical or subcritical phases) | 436.07 ± 3
3360.9 kPa, Fluid (supercritical or subcritical phases) | 459.89 ± 8
3377.9 kPa, Fluid (supercritical or subcritical phases) | 530.57 ± 10
3394.4 kPa, Fluid (supercritical or subcritical phases) | 567.77 ± 6.8
3410.4 kPa, Fluid (supercritical or subcritical phases) | 601.27 ± 6.3
3426.7 kPa, Fluid (supercritical or subcritical phases) | 633.69 ± 5
3445.3 kPa, Fluid (supercritical or subcritical phases) | 659.79 ± 4
3463.4 kPa, Fluid (supercritical or subcritical phases) | 682.18 ± 3.6
3480.7 kPa, Fluid (supercritical or subcritical phases) | 701.66 ± 3
3498.4 kPa, Fluid (supercritical or subcritical phases) | 717.14 ± 2.6
4505.3 kPa, Fluid (supercritical or subcritical phases) | 920.24 ± 0.99
4525.6 kPa, Fluid (supercritical or subcritical phases) | 921.9 ± 0.99
4552.8 kPa, Fluid (supercritical or subcritical phases) | 924.12 ± 1
4579.3 kPa, Fluid (supercritical or subcritical phases) | 926.3 ± 1
4626.5 kPa, Fluid (supercritical or subcritical phases) | 929.99 ± 1
4646.5 kPa, Fluid (supercritical or subcritical phases) | 931.47 ± 1
4666.9 kPa, Fluid (supercritical or subcritical phases) | 932.99 ± 1
4687.6 kPa, Fluid (supercritical or subcritical phases) | 934.6 ± 1
4707.8 kPa, Fluid (supercritical or subcritical phases) | 936.1 ± 1
4762.6 kPa, Liquid | 939.84 ± 1.1
4784.8 kPa, Liquid | 941.44 ± 1.1
4810.7 kPa, Liquid | 943.09 ± 1.1
4836.8 kPa, Liquid | 944.88 ± 1.1
4878.2 kPa, Liquid | 947.51 ± 1.1
4899.5 kPa, Liquid | 948.95 ± 1.1
4921.9 kPa, Liquid | 950.41 ± 1.1
4942.5 kPa, Liquid | 951.63 ± 1.1
4962.8 kPa, Liquid | 952.76 ± 1.1
4983.6 kPa, Liquid | 954.01 ± 1.1
5010.6 kPa, Liquid | 955.79 ± 1.1
5047.3 kPa, Liquid | 957.89 ± 1.1
